The subject of experiment [1] is E. coli ML4707. As to the kind of experiment: In vivo antibacterial activity against systemic infection in mice. Set-up: species or system mice (ICR-S). The note with it: Escherichia coli, ML4707; mice (ICR-S); oral, an hour after intraperitoneal infection; challenge dose 2.7 x 10^6 ~ 8.8 x 10^6 cfu/mouse; read-out: ED50 E. coli ML4707. As to the method: Experiment-2 In vivo antibacterial activity against systemic infection in mice (ICR-S)
The infections were produced by intraperitoneal injection of a suspension of the bacterial culture corresponding to the germ studied. The products were administered orally at an hour after the infection.

In experiment [2] the test system is C. difficile I-E. As to the kind of experiment: In vitro antibacterial activity, MIC (standard strain). The format is cell-based. The note with it: Clostridioides difficile; C. difficile I-E; 10^6 cells/ml; standard strain; read-out: MIC.

One may read the ED50 as the midpoint of the dose-response relation. By MIC is commonly meant the lowest concentration that inhibits growth of the organism.

In brackets after ≈: the same amount, converted by molar mass. Structures can show the parent of a compound that is named as a salt.

Turning to `CNCC1CCN(c2c(F)cc3c(=O)c(C(=O)O)cn(C4CC4)c3c2F)C1` (stereo not drawn) [Example 8, 1-Cyclopropyl-6,8-difluoro-1,4-dihydro-7-(3-methylaminomethyl-l-pyrrolidinyl)-4-oxo-3-quinolinecarboxylic acid hydrochloride], in experiment [1], the ED50 was found to be 1.9 mg/kg. For the same compound, the MIC in experiment [2] is 1.56 µg/mL.
Turning to `CC(C)NCC1CCN(c2c(F)cc3c(=O)c(C(=O)O)cn(C4CC4)c3c2F)C1.Cl` (stereo not shown) [Example 11, 1-Cyclopropyl-6,8-difluoro-1,4-dihydro-7-(3-isopropylaminomethyl-1-pyrrolidinyl)-4-oxo-3-quinolinecarboxylic acid hydrochloride], the minimum inhibitory concentration (MIC) in experiment [2] was 3.13 µg/mL.
On the same count and under the same terms, the same measure for `CCn1cc(C(=O)O)c(=O)c2cc(F)c(N3CCNCC3)cc21` [NFLX, Norfloxacin, reference compound]: 50 µg/mL (≈ 157 µM).
